Drawing on patent US20240190880A1 (THE REGENTS OF THE UNIVERSITY OF MICHIGAN, priority 2021, published 2024), this text covers DC50 for 16 compounds.

SMILES strings stand for the structures.

The target in the first assay is T1, ER (Homo sapiens, UniProt P03372).
T1 construct: host or cells: T47D and MCF7 human breast cancer cells
T1 sequence (P03372 1-595): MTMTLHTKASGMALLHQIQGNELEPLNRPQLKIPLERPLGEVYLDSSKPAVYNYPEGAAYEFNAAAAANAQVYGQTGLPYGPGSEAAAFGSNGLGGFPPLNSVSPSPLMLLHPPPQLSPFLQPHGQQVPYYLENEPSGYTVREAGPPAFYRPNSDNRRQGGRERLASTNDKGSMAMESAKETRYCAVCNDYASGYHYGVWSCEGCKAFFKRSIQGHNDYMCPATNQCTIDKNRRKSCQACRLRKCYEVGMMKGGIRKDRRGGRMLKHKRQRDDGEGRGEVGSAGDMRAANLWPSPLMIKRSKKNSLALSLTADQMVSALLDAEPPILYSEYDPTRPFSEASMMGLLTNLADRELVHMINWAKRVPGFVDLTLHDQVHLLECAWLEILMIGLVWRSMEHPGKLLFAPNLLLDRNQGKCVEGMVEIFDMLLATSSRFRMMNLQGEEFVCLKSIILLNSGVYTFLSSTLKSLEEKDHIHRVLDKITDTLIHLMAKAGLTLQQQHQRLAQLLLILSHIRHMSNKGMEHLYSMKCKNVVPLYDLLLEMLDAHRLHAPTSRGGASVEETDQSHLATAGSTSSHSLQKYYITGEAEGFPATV
Put plainly: ER degradation activity, in-cell western blot analysis in T47D cells. To be noted: 16 hours, Table A does not say which cell line (T47D or MCF7), read-out: Potency (DC50). The format is cell-based. The procedure, abridged: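 T47D cells grown in DMEM with 10% FBS were treated with compounds for 16 hours at 0.5% DMSO final. ER was detected by in-cell western using 680/800 near-infrared secondary antibodies. Residual ER is given as percent of untreated and DMSO-treated wells set to 100%.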
As a reminder, the DC50 is the concentration giving 50% degradation. In the case of `C[C@@H]1Cc2cc(O)ccc2[C@@H](c2ccc(N3CCC(C(=O)N4CC(CN5Cc6cc7c(cc6C5)C(=O)N(C5CCC(=O)NC5=O)C7=O)C4)CC3)cn2)N1CC(F)F` (stereo partly drawn) [E 351, 6-((1-(1-(6-((1S,3R)-2-(2,2-difluoroethyl)-6-hydroxy-3-methyl-1,2,3,4-tetrahydroisoquinolin-1-yl)pyridin-3-yl)piperidine-4-carbonyl)azetidin-3-yl)methyl)-2-(2,6-dioxopiperidin-3-yl)-6,7-dihydropyrrolo[3,4-f]isoindole-1,3(2H,5H)-dione], the DC50 is over 0.1 µM.
Regarding `C[C@@H]1Cc2cc(O)ccc2[C@@H](c2ccc(N3CCC(C(=O)N4CCC(N5Cc6cc7c(cc6C5)C(=O)N(C5CCC(=O)NC5=O)C7=O)CC4)CC3)cc2F)N1CC(F)F` (stereo partly drawn) [E 323, 6-(1-(1-(4-((1S,3R)-2-(2,2-difluoroethyl)-6-hydroxy-3-methyl-1,2,3,4-tetrahydroisoquinolin-1-yl)-3-fluorophenyl)piperidine-4-carbonyl)piperidin-4-yl)-2-(2,6-dioxopiperidin-3-yl)-6,7-dihydropyrrolo[3,4-f]isoindole-1,3(2H,5H)-dione], the DC50 is under 0.01 µM.
On the same count and under the same terms, in the case of `CN(c1ccc([C@H]2c3ccc(O)cc3CC[C@H]2c2ccccc2)cc1)C1CN([C@H]2CC[C@H](C(=O)N3Cc4cc5c(cc4C3)C(=O)N(C3CCC(=O)NC3=O)C5=O)CC2)C1` (stereo partly drawn) [E 394, 2-(2,6-dioxopiperidin-3-yl)-6-((1S,4r)-4-(3-((4-((1S,2R)-6-hydroxy-2-phenyl-1,2,3,4-tetrahydronaphthalen-1-yl)phenyl)(methyl)amino)azetidin-1-yl)cyclohexane-1-carbonyl)-6,7-dihydropyrrolo[3,4-f]isoindole-1,3(2H,5H)-dione] it was over 0.1 µM; in that of `O=C1CCC(N2Cc3cc4c(cc3C2=O)CN(C2CCN(CC3CCN(c5ccc([C@@H]6c7ccc(O)cc7CC[C@@H]6c6ccc(F)cc6)cc5)CC3)CC2)C4)C(=O)N1` (stereo partly drawn) [E 275, 3-(6-(1-((1-(4-((1R,2S)-2-(4-fluorophenyl)-6-hydroxy-1,2,3,4-tetrahydronaphthalen-1-yl)phenyl)piperidin-4-yl)methyl)piperidin-4-yl)-1-oxo-3,5,6,7-tetrahydropyrrolo[3,4-f]isoindol-2(1H)-yl)piperidine-2,6-dione], under 0.01 µM; in that of `O=C1CCC(N2C(=O)c3cc4c(cc3C2=O)CN(C2CCC(NC3CCN(c5ccc([C@@H]6c7ccc(O)cc7CC[C@@H]6c6ccccc6)cc5)CC3)CC2)C4)C(=O)N1` (stereo partly drawn) [E 303, 2-(2,6-dioxopiperidin-3-yl)-6-(4-((1-(4-((1R,2S)-6-hydroxy-2-phenyl-1,2,3,4-tetrahydronaphthalen-1-yl)phenyl)piperidin-4-yl)amino)cyclohexyl)-6,7-dihydropyrrolo[3,4-f]isoindole-1,3(2H,5H)-dione], over 0.1 µM.
`C[C@@H]1Cc2c([nH]c3ccccc23)[C@@H](c2c(F)cc(N3CC4(CCN(C(=O)CN5Cc6cc7c(cc6C5)C(=O)N(C5CCC(=O)NC5=O)C7)C4)C3)cc2F)N1CC(F)F` (stereo partly drawn) [E 66, 3-(6-(2-(2-(4-((1R,3R)-2-(2,2-difluoroethyl)-3-methyl-2,3,4,9-tetrahydro-1H-pyrido[3,4-b]indol-1-yl)-3,5-difluorophenyl)-2,6-diazaspiro[3.4]octan-6-yl)-2-oxoethyl)-1-oxo-3,5,6,7-tetrahydropyrrolo[3,4-f]isoindol-2(1H)-yl)piperidine-2,6-dione]: the DC50 was under 0.01 µM.
Still for that read-out and setting: with `O=C1CCC(N2C(=O)c3cc4c(cc3C2=O)CN(C(=O)CN2CCC3(CC2)CCN(c2ccc([C@@H]5c6ccc(O)cc6CC[C@@H]5c5ccccc5)c(F)c2)C3)C4)C(=O)N1` (mixture of isomers) [E 153, Rac-2-(2,6-dioxopiperidin-3-yl)-6-(2-(2-(3-fluoro-4-((1S,2S)-6-hydroxy-2-phenyl-1,2,3,4-tetrahydronaphthalen-1-yl)phenyl)-2,8-diazaspiro[4.5]decan-8-yl)acetyl)-6,7-dihydropyrrolo[3,4-f]isoindole-1,3(2H,5H)-dione] the figure was over 0.1 µM; with `O=C1CCC(N2C(=O)c3cc4c(cc3C2=O)CN(CC(=O)N2CCC3(CC2)CCN(c2ccc(C(=C(CCCl)c5ccc(F)cc5)c5ccc(O)cc5)cc2)CC3)C4)C(=O)N1` (stereo not shown) [E 196, 6-(2-(9-(4-(4-chloro-2-(4-fluorophenyl)-1-(4-hydroxyphenyl)but-1-en-1-yl)phenyl)-3,9-diazaspiro[5.5]undecan-3-yl)-2-oxoethyl)-2-(2,6-dioxopiperidin-3-yl)-6,7-dihydropyrrolo[3,4-f]isoindole-1,3(2H,5H)-dione], 0.01 to 0.1 µM; with `CN(CC1CN(c2ccc([C@@H]3c4ccc(O)cc4CC[C@@H]3c3ccccc3)cc2)C1)C1CCC(N2Cc3cc4c(cc3C2)C(=O)N(C2CCC(=O)NC2=O)C4=O)CC1` (stereo partly drawn) [E333, 2-(2,6-dioxopiperidin-3-yl)-6-(4-(((1-(4-((1R,2S)-6-hydroxy-2-phenyl-1,2,3,4-tetrahydronaphthalen-1-yl)phenyl)azetidin-3-yl)methyl)(methyl)amino)cyclohexyl)-6,7-dihydropyrrolo[3,4-f]isoindole-1,3(2H,5H)-dione], over 0.1 µM.
As for `O=C1CCC(N2C(=O)c3cc4c(cc3C2=O)CN(C(=O)CN2CC3(CCN(c5ccc([C@@H]6c7ccc(O)cc7CC[C@@H]6c6ccc(F)cc6)cc5)CC3)C2)C4)C(=O)N1` (mixture of isomers) [E 127, 2-(2,6-dioxopiperidin-3-yl)-6-(2-(7-(4-((1R,2S)-2-(4-fluorophenyl)-6-hydroxy-1,2,3,4-tetrahydronaphthalen-1-yl)phenyl)-2,7-diazaspiro[3.5]nonan-2-yl)acetyl)-6,7-dihydropyrrolo[3,4-f]isoindole-1,3(2H,5H)-dione], the DC50 lay within 0.01 to 0.1 µM.
Regarding `C[C@@H]1Cc2c([nH]c3ccccc23)[C@@H](c2c(F)cc(N3CCC4(CC3)CC(C(=O)N3CCC(CN5Cc6cc7c(cc6C5)C(=O)N(C5CCC(=O)NC5=O)C7=O)CC3)C4)cc2F)N1CC(F)F` (stereo partly drawn) [E 99, 6-((1-(7-(4-((1R,3R)-2-(2,2-difluoroethyl)-3-methyl-2,3,4,9-tetrahydro-1H-pyrido[3,4-b]indol-1-yl)-3,5-difluorophenyl)-7-azaspiro[3.5]nonane-2-carbonyl)piperidin-4-yl)methyl)-2-(2,6-dioxopiperidin-3-yl)-6,7-dihydropyrrolo[3,4-f]isoindole-1,3(2H,5H)-dione], the DC50 lay within 0.01 to 0.1 µM.

Still in this assay, the particulars now being: compounds 16 hours, Table A does not say whether T47D or MCF7, read-out: Potency (DC50).
Take `C[C@@H]1Cc2cc(O)ccc2[C@@H](c2c(F)cc(C3CCC(C(=O)N4CCC(N5Cc6cc7c(cc6C5)C(=O)N(C5CCC(=O)NC5=O)C7=O)CC4)CC3)cc2F)N1CC(F)F` (stereo partly drawn) [E 487, 6-(1-(4-(4-((1S,3R)-2-(2,2-difluoroethyl)-6-hydroxy-3-methyl-1,2,3,4-tetrahydroisoquinolin-1-yl)-3,5-difluorophenyl)cyclohexane-1-carbonyl)piperidin-4-yl)-2-(2,6-dioxopiperidin-3-yl)-6,7-dihydropyrrolo[3,4-f]isoindole-1,3(2H,5H)-dione]: the DC50 was 0.01 to 0.1 µM.
Still for that read-out and setting: in the case of `COc1nc(C2CCC(C(=O)N3CCC(N4Cc5cc6c(cc5C4)C(=O)N(C4CCC(=O)NC4=O)C6=O)CC3)CC2)ccc1[C@@H]1c2[nH]c3ccccc3c2C[C@@H](C)N1CC(F)F` (stereo partly drawn) [E 402, 6-(1-(4-(5-((1R,3R)-2-(2,2-difluoroethyl)-3-methyl-2,3,4,9-tetrahydro-1H-pyrido[3,4-b]indol-1-yl)-6-methoxypyridin-2-yl)cyclohexane-1-carbonyl)piperidin-4-yl)-2-(2,6-dioxopiperidin-3-yl)-6,7-dihydropyrrolo[3,4-f]isoindole-1,3(2H,5H)-dione] it was over 0.1 µM.
The same measure, in the same setting: with `O=C1CCC(N2C(=O)c3cc4c(cc3C2=O)CN(CC(=O)N2CCC3(CC2)CCN(c2ccc([C@@H]5c6ccc7[nH]ncc7c6CC[C@@H]5c5ccccc5)cc2)CC3)C4)C(=O)N1` (stereo partly drawn) [E 423, 2-(2,6-dioxopiperidin-3-yl)-6-(2-oxo-2-(9-(4-((6R,7S)-7-phenyl-6,7,8,9-tetrahydro-3H-benzo[e]indazol-6-yl)phenyl)-3,9-diazaspiro[5.5]undecan-3-yl)ethyl)-6,7-dihydropyrrolo[3,4-f]isoindole-1,3(2H,5H)-dione] the figure was 0.01 to 0.1 µM; with `C[C@@H]1Cc2c([nH]c3ccccc23)[C@@H](c2c(F)cc(C3CCC(C(=O)N4CCC(N5Cc6cc7c(cc6C5)C(=O)N(C5CCC(=O)NC5=O)C7=O)CC4)CC3)cc2F)N1CC(F)(F)CO` (stereo partly drawn) [E 400, 6-(1-(4-(4-((1R,3R)-2-(2,2-difluoro-3-hydroxypropyl)-3-methyl-2,3,4,9-tetrahydro-1H-pyrido[3,4-b]indol-1-yl)-3,5-difluorophenyl)cyclohexane-1-carbonyl)piperidin-4-yl)-2-(2,6-dioxopiperidin-3-yl)-6,7-dihydropyrrolo[3,4-f]isoindole-1,3(2H,5H)-dione], over 0.1 µM.
The same measure, in the same setting: in the case of `C[C@@H]1Cc2cc(O)ccc2[C@H](c2ccc(C3=CCC4(CC3)CCN(C(=O)CN3Cc5cc6c(cc5C3)C(=O)N(C3CCC(=O)NC3=O)C6=O)CC4)cc2)N1CC(F)F` (stereo partly drawn) [E 449, 6-(2-(9-(4-((1S,3R)-2-(2,2-difluoroethyl)-6-hydroxy-3-methyl-1,2,3,4-tetrahydroisoquinolin-1-yl)phenyl)-3-azaspiro[5.5]undec-8-en-3-yl)-2-oxoethyl)-2-(2,6-dioxopiperidin-3-yl)-6,7-dihydropyrrolo[3,4-f]isoindole-1,3(2H,5H)-dione] it was over 0.1 µM.
